Broadly, the IC50 is the concentration that inhibits the measured activity by half.

Each structure is given as a SMILES string. ≈ marks a conversion by molar mass, not a printed value.

Assay [1] concerns the target T1, D-Alanyl-D-Alanine ligase (Enterococcus hirae, UniProt Q47827).
T1 sequence (Q47827 1-358): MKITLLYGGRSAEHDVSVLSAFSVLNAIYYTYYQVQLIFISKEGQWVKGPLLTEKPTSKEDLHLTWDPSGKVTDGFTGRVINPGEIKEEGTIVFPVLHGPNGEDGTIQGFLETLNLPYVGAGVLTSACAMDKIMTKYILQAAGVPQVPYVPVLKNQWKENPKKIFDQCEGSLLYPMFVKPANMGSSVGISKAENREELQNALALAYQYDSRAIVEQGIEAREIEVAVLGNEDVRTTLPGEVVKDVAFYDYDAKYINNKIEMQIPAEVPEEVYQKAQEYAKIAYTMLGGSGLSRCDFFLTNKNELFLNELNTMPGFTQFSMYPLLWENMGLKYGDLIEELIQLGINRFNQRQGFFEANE
In words: D-Alanyl-D-Alanine ligase inhibition in vitro. The class given is biochemical. Particulars: inhibitor pre-incubated with enzyme 40 minutes at room temperature, then 37° C. for 30 minutes; 14C-D-alanine substrate; read-out: IC50 (μM), DAlaAla ligase inhibition. The protocol: The ligase enzyme inhibitory activity of compounds of Formula I have been evaluated in vitro with only minor modifications of the procedures of F. C. Neuhaus (Biochemistry 3, 471-480 (1964) and references cited therein) using D-cycloserine as a control and standard ligase inhibitor. The procedure is as follows:
Streptococcus faecalis (ATCC 8043) was grown as described by Neuhaus (J. Biol. Chem., 237:778, 1962). Cell-free extracts were prepared by sonication followed by centrifugation at 27,000 x g for 30 minutes. Protein was precipitated with 55% ammonium sulfate. The precipitate was dissolved in 0.05M Tris-Cl buffer (pH 7.0), dialyzed against 0.002M glutathione and stored in liquid nitrogen. No loss of activity was observed after 1 year.
The assay mixture contained 0.05M Tris-Cl buffer (pH 7.9), 0.01M KCl, 0.008M MgCl2, 0.005M ATP, 0.005M (14C-l)-D-alanine and 5 μl of enzyme (specific activity=0.38 units/mg protein). Assay volume was 0.1 ml.
Inhibitors were pre-incubated with enzyme, MgCl2, KCl and buffer, for 40 minutes at room temperature, before addition of ATP and substrate. Samples were subsequently incubated at 37° C. for 30 minutes.
Twenty μl of each sample was applied to the preabsorbent layer of high resolution, prechanneled silica-gel TLC plates to stop the reaction. Plates were developed in ethanol:ammonium hydroxide:H2 O (11:1:8) for 2-3 hours and the radioactive zones located and integrated with a Berthold Linear Analyzer. […] IC50's were determined for active compounds (70% inhibition).

The next assay relates to E. coli TEM 2+. In words: Agar dilution antibacterial assay (MIC). It is filed as cell-based. Particulars: Escherichia coli, read-out: Minimum Inhibitory Concentration, E. coli TEM 2+. The text has this: The antibacterial data shown below were obtained using a synthetic agar medium described by F. R. Atherton et al., Antimicrobial Agents and Chemotherapy, 15, 677 (1979).
(Minimum Inhibitory Concentrations from Agar Dilution Assays in mg/ml)

Regarding `CC(N)P(=O)(O)CCC(=O)O` (racemic) [DL, R2=H, R3=H, 1-Aminoethyl-[2-carboxy-1-ethyl]phosphinic acid], the IC50 in assay [1] was determined as 535 µM.
In the case of `CCC(CP(=O)(O)C(C)N)C(=O)O` (racemic) [DL, R2=ethyl, R3=H, 1-Aminoethyl-[2-carboxy-1-n-butyl]phosphinic acid], in assay [1], the IC50 turned out to be 50 µM.
On to `CCCCCCCC(CP(=O)(O)C(C)N)C(=O)O` (racemic) [DL, R2=n-heptyl, R3=H, 1-Aminoethyl-[2-carboxy-1-nonyl]phosphinic acid], for which the 50% inhibitory concentration (IC50) in assay [1] came out at 12.5 µM.
Turning to `CCC(CP(=O)(O)[C@@H](C)N)C(=O)O` (stereo partly drawn) [D, R2=ethyl, R3=H, 1-D-Aminoethyl-(2-carboxy-1-n-butyl)phosphinic acid], in the assay with E. coli TEM 2+, the MIC worked out at 64 mg/mL (≈ 306 mM).

(Values after patent US5143908A, “Antibacterial agents and potentiators of carbapenem antibiotics” (Merck & Co., Inc., priority 1990, dated 1992).)
